Target: Full-length inactive AKT1 (Homo sapiens, UniProt P31749)
Assay: Inactive Akt Alpha Screen Assay
Assay type: biochemical
Details: AlphaScreen assay (values not marked with *); read-out: Akt1 IC50, (AlphaScreen) (μM) (or if marked with “*” HTRF assay)
In short: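 AlphaScreen read-out (excitation 640 nm, emission 570 nm) after 90 min incubation at room temperature in the dark. Signal comes from crosstide phosphorylation by AKT1, which was activated by added PDK1, MAPKAPK2, ATP and lipid vesicles, captured via phospho-AKT substrate antibody and streptavidin beads.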

Sequence of Full-length inactive AKT1 (P31749 whole entry): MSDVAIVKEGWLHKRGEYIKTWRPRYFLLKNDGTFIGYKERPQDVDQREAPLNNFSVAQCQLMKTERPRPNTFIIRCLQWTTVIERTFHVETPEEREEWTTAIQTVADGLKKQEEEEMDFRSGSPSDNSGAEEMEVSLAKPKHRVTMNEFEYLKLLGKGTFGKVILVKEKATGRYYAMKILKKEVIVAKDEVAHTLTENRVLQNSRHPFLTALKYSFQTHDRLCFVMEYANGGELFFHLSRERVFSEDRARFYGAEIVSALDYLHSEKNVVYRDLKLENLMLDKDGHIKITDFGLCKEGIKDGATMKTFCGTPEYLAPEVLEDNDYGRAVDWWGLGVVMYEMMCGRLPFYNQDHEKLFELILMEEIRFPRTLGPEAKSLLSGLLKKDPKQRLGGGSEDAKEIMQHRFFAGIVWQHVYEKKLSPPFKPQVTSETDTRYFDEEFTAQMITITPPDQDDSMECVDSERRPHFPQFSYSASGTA

Compound	IC50
CNC(=O)c1cc(F)cc(-c2ccc3nc(-c4cccnc4N)n(-c4ccc(C5(N)CCC5)cc4)c3n2)c1 [Example 432, 3-{3-[4-(1-aminocyclobutyl)phenyl]-2-(2-aminopyridin-3-yl)-3H-imidazo[4,5-b]pyridin-5-yl}-5-fluoro-N-methylbenzamide]	0.0064 µM
CN1CCOc2cc(-c3ccc4nc(-c5cccnc5N)n(-c5ccc(C6(N)CCC6)cc5)c4n3)ccc21 [Example 433, 3-{3-[4-(1-aminocyclobutyl)phenyl]-5-(4-methyl-3,4-dihydro-2H-1,4-benzoxazin-7-yl)-3H-imidazo[4,5-b]pyridin-2-yl}pyridin-2-amine]	0.0018 µM
Nc1ncccc1-c1nc2ccc(-c3ccc(O)c(F)c3)nc2n1-c1ccc(C2(N)CCC2)cc1 [Example 434, 4-{3-[4-(1-aminocyclobutyl)phenyl]-2-(2-aminopyridin-3-yl)-3H-imidazo[4,5-b]pyridin-5-yl}-2-fluorophenol]	0.005 µM
Nc1ncccc1-c1nc2ccc(-c3cc(O)cc(F)c3)nc2n1-c1ccc(C2(N)CCC2)cc1 [Example 435, 3-{3-[4-(1-aminocyclobutyl)phenyl]-2-(2-aminopyridin-3-yl)-3H-imidazo[4,5-b]pyridin-5-yl}-5-fluorophenol]	0.01 µM
Nc1ncccc1-c1nc2ccc(-c3ccc(F)c(O)c3)nc2n1-c1ccc(C2(N)CCC2)cc1 [Example 436, 5-{3-[4-(1-aminocyclobutyl)phenyl]-2-(2-aminopyridin-3-yl)-3H-imidazo[4,5-b]pyridin-5-yl}-2-fluorophenol]	0.0078 µM
Nc1ncccc1-c1nc2ccc(-c3cc(O)ccc3F)nc2n1-c1ccc(C2(N)CCC2)cc1 [Example 437, 3-{3-[4-(1-aminocyclobutyl)phenyl]-2-(2-aminopyridin-3-yl)-3H-imidazo[4,5-b]pyridin-5-yl}-4-fluorophenol]	0.014 µM
CN1C(=O)COc2ccc(-c3ccc4nc(-c5cccnc5N)n(-c5ccc(C6(N)CCC6)cc5)c4n3)cc21 [Example 438, 6-{3-[4-(1-aminocyclobutyl)phenyl]-2-(2-aminopyridin-3-yl)-3H-imidazo[4,5-b]pyridin-5-yl}-4-methyl-2H-1,4-benzoxazin-3(4H)-one]	0.0079 µM
Nc1ncccc1-c1nc2ccc(-c3ccnc(N4CCOCC4)c3)nc2n1-c1ccc(C2(N)CCC2)cc1 [Example 439, 3-{3-[4-(1-aminocyclobutyl)phenyl]-5-(2-morpholin-4-ylpyridin-4-yl)-3H-imidazo[4,5-b]pyridin-2-yl}pyridin-2-amine]	0.0026 µM
CNC(=O)c1cc(-c2ccc3nc(-c4cccnc4N)n(-c4ccc(C5(N)CCC5)cc4)c3n2)ccc1F [Example 440, 5-{3-[4-(1-aminocyclobutyl)phenyl]-2-(2-aminopyridin-3-yl)-3H-imidazo[4,5-b]pyridin-5-yl}-2-fluoro-N-methylbenzamide]	0.0054 µM

Same assay, conditions: values not marked with "*"; read-out: Akt1 IC50, (AlphaScreen)

Compound	IC50
COc1cc(-c2ccc3nc(-c4cccnc4N)n(-c4ccc(C5(N)CCC5)cc4)c3n2)ccc1N [Example 417, 3-{3-[4-(1-aminocyclobutyl)phenyl]-5-(4-amino-3-methoxyphenyl)-3H-imidazo[4,5-b]pyridin-2-yl}pyridin-2-amine]	0.002 µM
Nc1ncccc1-c1nc2ccc(-c3cc[nH]n3)nc2n1-c1ccc(C2(N)CCC2)cc1 [Example 418, 3-{3-[4-(1-aminocyclobutyl)phenyl]-5-(1H-pyrazol-3-yl)-3H-imidazo[4,5-b]pyridin-2-yl}pyridin-2-amine]	0.0082 µM
COc1cc(-c2ccc3nc(-c4cccnc4N)n(-c4ccc(C5(N)CCC5)cc4)c3n2)ccc1O [Example 419, 4-{3-[4-(1-aminocyclobutyl)phenyl]-2-(2-aminopyridin-3-yl)-3H-imidazo[4,5-b]pyridin-5-yl}-2-methoxyphenol]	0.0027 µM
COc1cc(F)cc(-c2ccc3nc(-c4cccnc4N)n(-c4ccc(C5(N)CCC5)cc4)c3n2)c1 [Example 420, 3-{3-[4-(1-aminocyclobutyl)phenyl]-5-(3-fluoro-5-methoxyphenyl)-3H-imidazo[4,5-b]pyridin-2-yl}pyridin-2-amine]	0.0054 µM
COc1cccc(-c2ccc3nc(-c4cccnc4N)n(-c4ccc(C5(N)CCC5)cc4)c3n2)c1F [Example 421, 3-{3-[4-(1-aminocyclobutyl)phenyl]-5-(2-fluoro-3-methoxyphenyl)-3H-imidazo[4,5-b]pyridin-2-yl}pyridin-2-amine]	0.017 µM
CCCOc1cccc(-c2ccc3nc(-c4cccnc4N)n(-c4ccc(C5(N)CCC5)cc4)c3n2)c1 [Example 422, 3-{3-[4-(1-aminocyclobutyl)phenyl]-5-(3-propoxyphenyl)-3H-imidazo[4,5-b]pyridin-2-yl}pyridin-2-amine]	0.011 µM
Nc1ncccc1-c1nc2ccc(-c3cc4ccccc4o3)nc2n1-c1ccc(C2(N)CCC2)cc1 [Example 423, 3-{3-[4-(1-aminocyclobutyl)phenyl]-5-(1-benzofuran-2-yl)-3H-imidazo[4,5-b]pyridin-2-yl}pyridin-2-amine]	0.0066 µM
Nc1ncccc1-c1nc2ccc(-c3ccc(O)cc3)nc2n1-c1ccc(C2(N)CCC2)cc1 [Example 424, 4-{3-[4-(1-aminocyclobutyl)phenyl]-2-(2-aminopyridin-3-yl)-3H-imidazo[4,5-b]pyridin-5-yl}phenol]	0.0093 µM
Nc1ncccc1-c1nc2ccc(-c3nccs3)nc2n1-c1ccc(C2(N)CCC2)cc1 [Example 425, 3-{3-[4-(1-aminocyclobutyl)phenyl]-5-(1,3-thiazol-2-yl)-3H-imidazo[4,5-b]pyridin-2-yl}pyridin-2-amine]	0.01 µM
Nc1ncccc1-c1nc2ccc(-c3cccc(OC(F)(F)F)c3)nc2n1-c1ccc(C2(N)CCC2)cc1 [Example 426, 3-{3-[4-(1-aminocyclobutyl)phenyl]-5-[3-(trifluoromethoxy)phenyl]-3H-imidazo[4,5-b]pyridin-2-yl}pyridin-2-amine]	0.005 µM
Nc1ncccc1-c1nc2ccc(-c3ccsc3)nc2n1-c1ccc(C2(N)CCC2)cc1 [Example 427, 3-{3-[4-(1-aminocyclobutyl)phenyl]-5-(3-thienyl)-3H-imidazo[4,5-b]pyridin-2-yl}pyridin-2-amine]	0.01 µM
COc1cc(-c2ccc3nc(-c4cccnc4N)n(-c4ccc(C5(N)CCC5)cc4)c3n2)ccc1F [Example 428, 3-{3-[4-(1-aminocyclobutyl)phenyl]-5-(4-fluoro-3-methoxyphenyl)-3H-imidazo[4,5-b]pyridin-2-yl}pyridin-2-amine]	0.0058 µM
COc1ccc(-c2ccc3nc(-c4cccnc4N)n(-c4ccc(C5(N)CCC5)cc4)c3n2)cc1O [Example 429, 5-{3-[4-(1-aminocyclobutyl)phenyl]-2-(2-aminopyridin-3-yl)-3H-imidazo[4,5-b]pyridin-5-yl}-2-methoxyphenol]	0.0095 µM
COc1cccc(-c2ccc3nc(-c4cccnc4N)n(-c4ccc(C5(N)CCC5)cc4)c3n2)c1O [Example 430, 2-{3-[4-(1-aminocyclobutyl)phenyl]-2-(2-aminopyridin-3-yl)-3H-imidazo[4,5-b]pyridin-5-yl}-6-methoxyphenol]	0.0038 µM
Nc1ncccc1-c1nc2ccc(-c3cccc(N4CCCCC4)c3)nc2n1-c1ccc(C2(N)CCC2)cc1 [Example 431, 3-{3-[4-(1-aminocyclobutyl)phenyl]-5-(3-piperidin-1-ylphenyl)-3H-imidazo[4,5-b]pyridin-2-yl}pyridin-2-amine]	0.018 µM

Reference: patent US8501770B2 (ArQule, Inc., priority 2009, dated 2013)
